Source: patent US10251395B2, “Substituted furano-/thienocycloalkylamino-2-pyrimidine derivatives and use thereof for controlling undesired plant growth” (Bayer CropScience Aktiengesellschaft, priority 2015, dated 2019)

Columns and labels:
Type in all cases: in vivo
Veronica persica [1] = assay: Post-emergence herbicidal effect; settings: 320 g/ha, assessed visually after about 3 weeks vs untreated controls
How it was run: (§1)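 Greenhouse weeds grown in sandy loam were sprayed at the one-leaf stage, 2–3 weeks after sowing, with WP or EC formulations in 600–800 L/ha water plus 0.2% wetting agent. Damage was scored visually after about 3 weeks as percent activity relative to untreated controls, where 100% means the plants died.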

Setaria viridis [2] = assay: Post-emergence herbicidal effect; settings: assessed visually after about 3 weeks vs untreated controls
How it was run: as §1

Abutilon theophrasti [3] = assay: Post-emergence herbicidal effect; settings: assessed visually after about 3 weeks vs untreated controls
How it was run: as §1

Polygonum convolvulus [4] = assay: Post-emergence herbicidal effect; settings: 320 g/ha, assessed visually after about 3 weeks vs untreated controls
How it was run: as §1

Amaranthus retroflexus [5] = assay: Post-emergence herbicidal effect; settings: assessed visually after about 3 weeks vs untreated controls
How it was run: as §1

Matricaria inodora [6] = assay: Post-emergence herbicidal effect; settings: assessed visually after about 3 weeks vs untreated controls
How it was run: as §1

Stellaria media [7] = assay: Post-emergence herbicidal effect; settings: assessed visually after about 3 weeks vs untreated controls
How it was run: as §1

Ipomoea purpurea = assay: Post-emergence herbicidal effect; settings: assessed visually after about 3 weeks vs untreated controls
How it was run: as §1

Avena fatua [8] = assay: Post-emergence herbicidal effect; settings: 320 g/ha, assessed visually after about 3 weeks vs untreated controls
How it was run: as §1

Viola tricolor [9] = assay: Post-emergence herbicidal effect; settings: assessed visually after about 3 weeks vs untreated controls
How it was run: as §1

Lolium multiflorum [10] = assay: Post-emergence herbicidal effect; settings: assessed visually after about 3 weeks vs untreated controls
How it was run: as §1

Alopecurus myosuroides [11] = assay: Post-emergence herbicidal effect; settings: 320 g/ha, assessed visually after about 3 weeks vs untreated controls
How it was run: as §1

Echinochloa crus-galli [12] = assay: Post-emergence herbicidal effect; settings: assessed visually after about 3 weeks vs untreated controls
How it was run: as §1

Veronica persica [13] = assay: Pre-emergence herbicidal effect; settings: scored visually after 3 weeks
How it was run: (§2)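 Visual damage score in % after 3 weeks in the greenhouse, relative to untreated controls (0% like control, 100% plants dead). Compounds were sprayed pre-emergence onto covering soil over seeds sown in sandy loam, as WP or EC in water at 600 to 800 L/ha plus 0.2% wetting agent.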

Setaria viridis [14] = assay: Pre-emergence herbicidal effect; settings: scored visually after 3 weeks
How it was run: as §2

Abutilon theophrasti [15] = assay: Pre-emergence herbicidal effect; settings: Dosage 320 g/ha, scored visually after 3 weeks
How it was run: as §2

Cyperus esculentus = assay: Pre-emergence herbicidal effect; settings: Dosage 320 g/ha, scored visually after 3 weeks
How it was run: as §2

Polygonum convolvulus [16] = assay: Pre-emergence herbicidal effect; settings: scored visually after 3 weeks
How it was run: as §2

Amaranthus retroflexus [17] = assay: Pre-emergence herbicidal effect; settings: scored visually after 3 weeks
How it was run: as §2

Matricaria inodora [18] = assay: Pre-emergence herbicidal effect; settings: scored visually after 3 weeks
How it was run: as §2

Stellaria media [19] = assay: Pre-emergence herbicidal effect; settings: scored visually after 3 weeks
How it was run: as §2

Avena fatua [20] = assay: Pre-emergence herbicidal effect; settings: Dosage 320 g/ha, scored visually after 3 weeks
How it was run: as §2

Viola tricolor [21] = assay: Pre-emergence herbicidal effect; settings: scored visually after 3 weeks
How it was run: as §2

Lolium multiflorum [22] = assay: Pre-emergence herbicidal effect; settings: scored visually after 3 weeks
How it was run: as §2

Alopecurus myosuroides [23] = assay: Pre-emergence herbicidal effect; settings: scored visually after 3 weeks
How it was run: as §2

Echinochloa crus-galli [24] = assay: Pre-emergence herbicidal effect; settings: scored visually after 3 weeks
How it was run: as §2

Cc1cc2c(s1)CCC[C@H]2Nc1ncc(I)c(N)n1 [compound 173]
100%: post-emergence efficacy VERPE (Veronica persica [1]) | post-emergence efficacy STEME (Stellaria media [7]; 80 g/ha) | post-emergence efficacy STEME (Stellaria media [7]; 320 g/ha) | post-emergence efficacy PHBPU (Ipomoea purpurea; 320 g/ha) | post-emergence efficacy ALOMY (Alopecurus myosuroides [11]) | post-emergence efficacy ECHCG (Echinochloa crus-galli [12]; 80 g/ha) | post-emergence efficacy ECHCG (Echinochloa crus-galli [12]; 320 g/ha) | VERPE pre-emergence efficacy (herbicidal activity) (Veronica persica [13]; Dosage 320 g/ha) | SETVI pre-emergence efficacy (herbicidal activity) (Setaria viridis [14]; Dosage 320 g/ha) | ABUTH pre-emergence efficacy (herbicidal activity) (Abutilon theophrasti [15]) | POLCO pre-emergence efficacy (herbicidal activity) (Polygonum convolvulus [16]; Dosage 320 g/ha) | AMARE pre-emergence efficacy (herbicidal activity) (Amaranthus retroflexus [17]; Dosage 80 g/ha) | AMARE pre-emergence efficacy (herbicidal activity) (Amaranthus retroflexus [17]; Dosage 320 g/ha) | MATIN pre-emergence efficacy (herbicidal activity) (Matricaria inodora [18]; Dosage 80 g/ha) | MATIN pre-emergence efficacy (herbicidal activity) (Matricaria inodora [18]; Dosage 320 g/ha) | STEME pre-emergence efficacy (herbicidal activity) (Stellaria media [19]; Dosage 80 g/ha) | STEME pre-emergence efficacy (herbicidal activity) (Stellaria media [19]; Dosage 320 g/ha) | VIOTR pre-emergence efficacy (herbicidal activity) (Viola tricolor [21]; Dosage 80 g/ha) | VIOTR pre-emergence efficacy (herbicidal activity) (Viola tricolor [21]; Dosage 320 g/ha) | LOLMU pre-emergence efficacy (herbicidal activity) (Lolium multiflorum [22]; Dosage 320 g/ha) | ECHCG pre-emergence efficacy (herbicidal activity) (Echinochloa crus-galli [24]; Dosage 80 g/ha) | ECHCG pre-emergence efficacy (herbicidal activity) (Echinochloa crus-galli [24]; Dosage 320 g/ha)
90%: post-emergence efficacy SETVI (Setaria viridis [2]; 320 g/ha) | post-emergence efficacy ABUTH (Abutilon theophrasti [3]; 320 g/ha) | post-emergence efficacy AMARE (Amaranthus retroflexus [5]; 80 g/ha) | post-emergence efficacy AMARE (Amaranthus retroflexus [5]; 320 g/ha) | post-emergence efficacy MATIN (Matricaria inodora [6]; 320 g/ha) | post-emergence efficacy PHBPU (Ipomoea purpurea; 80 g/ha) | post-emergence efficacy AVEFA (Avena fatua [8]) | post-emergence efficacy VIOTR (Viola tricolor [9]; 80 g/ha) | post-emergence efficacy VIOTR (Viola tricolor [9]; 320 g/ha) | post-emergence efficacy LOLMU (Lolium multiflorum [10]; 320 g/ha) | VERPE pre-emergence efficacy (herbicidal activity) (Veronica persica [13]; Dosage 80 g/ha) | SETVI pre-emergence efficacy (herbicidal activity) (Setaria viridis [14]; Dosage 80 g/ha) | POLCO pre-emergence efficacy (herbicidal activity) (Polygonum convolvulus [16]; Dosage 80 g/ha)
80%: post-emergence efficacy SETVI (Setaria viridis [2]; 80 g/ha) | post-emergence efficacy ABUTH (Abutilon theophrasti [3]; 80 g/ha) | ALOMY pre-emergence efficacy (herbicidal activity) (Alopecurus myosuroides [23]; Dosage 320 g/ha)
60%: post-emergence efficacy POLCO (Polygonum convolvulus [4]) | post-emergence efficacy MATIN (Matricaria inodora [6]; 80 g/ha) | post-emergence efficacy LOLMU (Lolium multiflorum [10]; 80 g/ha) | CYPES pre-emergence efficacy (herbicidal activity) (Cyperus esculentus) | AVEFA pre-emergence efficacy (herbicidal activity) (Avena fatua [20]) | LOLMU pre-emergence efficacy (herbicidal activity) (Lolium multiflorum [22]; Dosage 80 g/ha) | ALOMY pre-emergence efficacy (herbicidal activity) (Alopecurus myosuroides [23]; Dosage 80 g/ha)
